# Measurements published in patent US20090031455A1 (priority 2004, published 2009).
# Key:
# recombinant FaPINH = assay: recombinant enzyme activity assay with yeast microsomes, GC-MS; settings: for hydroxylation of alternative substrates by PINH: position analogous to α-pinene C10 (C7), FIGS. 3-4
# Procedure: Microsome preparations were evaluated by CO-difference spectrum and were assayed for (−)-α-pinene hydroxylation. The reaction mixture for the recombinant enzyme activity assay, in a final volume of 1 ml, contained 50 mM Tris-HCl pH 7.4, 1 mM EDTA, 0.1 mM DTT, 0.8 units glucose-6-phosphate dehydrogenase, 2 mM glucose 6-phosphate, 5 μM FAD, 5 μM FMN, 1 mM NADPH, and 200 μL of microsomal preparation. 200 nmol (−)-α-pinene (in less than 10 μl, which has no detectable influence on the reaction) were added to the mixture to start the reaction, which was allowed to proceed for 2 hours at 30° C. with gentle shaking. Microsomes isolated from cells harboring the empty vector were employed as controls. The reaction was stopped by chilling the mixture on ice and extracting twice with 1.0-mL portions of pentane:diethyl ether (4:1). The combined extract was passed through a short column of silica gel and anhydrous MgSO4, after which the column was washed with 1.5 mL diethyl ether to remove residual compounds. After concentration under N2, the samples were analyzed by GC-MS. Samples (2 μL) were analyzed by an automated injector on a Hewlett-Packard 5890 series II gas chromatograph equipped with a 30 m×0.25 mm inner diameter fused silica column coated with a 0.25 μm film of HP 5MS (Hewlett-Packard), and a Hewlett-Packard 5972A Mass Selective Detector. GC oven temperature was programmed at an initial temperature of 45° C. for 1 min, with a ramp of 10° C. min-1 to 280° C., and a final time of 10 min. Full spectra were recorded for major reaction products, which were identified by comparing retention times with authentic standards and by comparing spectra with those of the NSB75K library, using the G1033A NIST probability based matching algorithm.
# Phytophthora infestans [1] = assay type: cell-based; settings: P. infestans; for inhibition of spore germination: FIG. 7
# Botrytis elliptica [2] = assay type: cell-based
# Botrytis elliptica [3] = assay type: cell-based; remark: listed apart in the source
# Phytophthora infestans [4] = assay type: cell-based; settings: P. infestans; for inhibition of mycelial growth: FIG. 8
# Pythium aphanidermatum = assay type: cell-based
# plant pathogens = assay type: cell-based; settings: for antimicrobial effect compared with perilla alcohol: FIGS. 7-8; for antimicrobial effect compared with geraniol: data not shown
# [5] = system: PINH expressed in Saccharomyces cerevisiae; assay: in vivo bioconversion assay with intact transgenic yeast cells expressing PINH; settings: 500 μM (−)-α-pinene, 2 h at 30° C.
# Procedure: Transformants were selected on SGI medium, while expression was carried out in YPL medium (induction with 2% galactose) (Pompon et al., 1996). Intact cells were harvested and used for an in vivo assay, by incubation in 50 mM Tris-HCl buffer (pH 7.4) containing 0.1 mM DTT and 1 mM EDTA in the presence of 500 μM (−)-α-pinene. The reaction was allowed to proceed for 2 h at 30° C. with gentle shaking. Controls containing no substrate, and cells containing vector without insert, were also used for in vivo assays. The assays were extracted and analysed using GC-MS as described under Example 3.
structure (smiles),measurement,setting,value
Cc1ccc(C(C)C)cc1 [p-cymene],hydroxylation of alternative substrates by PINH,recombinant FaPINH,hydroxylated at C7
C=C(C)[C@@H]1CC=C(CO)CC1 [perilla alcohol],inhibition of spore germination,Phytophthora infestans [1],effective inhibitors
same,effectiveness against spore germination relative to linalool and myrtenol,Botrytis elliptica [2],about 2 fold
same,inhibition of spore germination,Botrytis elliptica [2],effective inhibitors
same,effectiveness against mycelial growth compared with linalool,Botrytis elliptica [3],slightly more effective than linalool
same,inhibition of mycelial growth,Botrytis elliptica [3],effectively inhibited
same,effectiveness against mycelial growth compared with linalool,Phytophthora infestans [4],more effective than linalool
same,inhibition of mycelial growth,Phytophthora infestans [4],effectively inhibited
same,effectiveness against mycelial growth compared with linalool,Pythium aphanidermatum,more effective
same,inhibition of mycelial growth,Pythium aphanidermatum,effectively inhibited
C=C(C)C1CC=C(C=O)CC1 (stereo not shown) [perilla aldehyde],inhibition of spore germination,Phytophthora infestans [1],effective inhibitors
same,effectiveness against spore germination relative to linalool,"Phytophthora infestans [1]; FIG. 7A, more effective than linalool",about 10 fold
same,effect on spore germination at the concentration tested,Botrytis elliptica [2],completely blocks germination
same,inhibition of spore germination,Botrytis elliptica [2],effective inhibitors
same,effectiveness against mycelial growth compared with linalool,Botrytis elliptica [3],slightly more effective than linalool
same,inhibition of mycelial growth,Botrytis elliptica [3],effectively inhibited
same,effectiveness against mycelial growth compared with linalool,Phytophthora infestans [4],more effective than linalool
same,inhibition of mycelial growth,Phytophthora infestans [4],effectively inhibited
same,effectiveness against mycelial growth relative to linalool,Phytophthora infestans [4]; more effective than linalool,4-5 fold
same,effectiveness against mycelial growth compared with linalool,Pythium aphanidermatum,more effective
same,inhibition of mycelial growth,Pythium aphanidermatum,effectively inhibited
same,antimicrobial effect compared with perilla alcohol,plant pathogens,more effective than perilla alcohol
CC1=CC[C@H](C(C)C)C=C1 [α-phellandrene],hydroxylation of alternative substrates by PINH,recombinant FaPINH,hydroxylated at the same position
CC(C)=CCCC(C)=CC=O [citral],antimicrobial effect compared with geraniol,plant pathogens,more effective than geraniol
CC1=CCC2CC1C2(C)C (stereo not drawn) [α-pinene],substrate hydroxylated at C-10 to form myrtenol,"recombinant FaPINH; microsomes from FaPINH expressing yeast, 2 hours at 30° C.",over 50%
same,conversion into myrtenol by intact yeast cells,[5],efficiently converted
CC1(C)C2CC=C(CO)C1C2 (stereo not shown) [myrtenol],inhibition of spore germination,Phytophthora infestans [1],effective inhibitors
same,inhibition of spore germination,Botrytis elliptica [2],effective inhibitors
same,effectiveness against mycelial growth compared with linalool,Botrytis elliptica [3],slightly more effective than linalool
same,inhibition of mycelial growth,Botrytis elliptica [3],effectively inhibited
same,effectiveness against mycelial growth compared with linalool,Phytophthora infestans [4],more effective than linalool
same,inhibition of mycelial growth,Phytophthora infestans [4],effectively inhibited
same,effectiveness against mycelial growth compared with linalool,Pythium aphanidermatum,less effective than linalool
same,inhibition of mycelial growth,Pythium aphanidermatum,effectively inhibited
C=C(C)[C@@H]1CC=C(C(=O)O)CC1 [perillic acid],antimicrobial effect compared with perilla alcohol,plant pathogens,more effective than perilla alcohol
CC1=CC=C(C(C)C)CC1 [α-terpinene],hydroxylation of alternative substrates by PINH,recombinant FaPINH,hydroxylated at the same position
CC1=CC[C@H]2C[C@@H]1C2(C)C [(−)-α-pinene],substrate preference between enantiomers,recombinant FaPINH; (−)- versus (+)-α-pinene,preferred to (+)-α-pinene
C=C(C)[C@H]1CC=C(C)CC1 [limonene],hydroxylation of alternative substrates by PINH,recombinant FaPINH,efficiently hydroxylated
CC(C)=CCC/C(C)=C/C(=O)O [geranic acid],antimicrobial effect compared with geraniol,plant pathogens,more effective than geraniol
CC1=CCC(=C(C)C)CC1 [α-terpinolene],hydroxylation of alternative substrates by PINH,recombinant FaPINH,hydroxylated at the same position
